These results are taken from US20100234469A1, “New Crystals Of A Benzoylbenzeneacetamide Derivative” (Medichem, S.A., priority 2009, published 2010).

Values after ≈ are worked out from the molar mass of the structure shown. Like-named read-outs stand apart in the source and are kept apart here.

Common to all, as to type: physicochemical
Data set [1] is described as follows: Particle size distribution (Malvern Mastersizer S). The settings on record: for D[4,3]: mean diameter by volume; for DMVS (μm): Table 4, surface area mean diameter (D[3,2]). The procedure: The particle size for nepafenac was measured using a Malvern Mastersizer S particle size analyzer with an MS1-Small Volume Sample Dispersion Unit stirred cell. A 300RF mm lens and a beam length of 2.4 mm were used. Samples for analysis were prepared by wetting a weighed amount of nepafenac (approximately 50 mg) with 0.5 mL of a 1% solution of Igepal CA-630 in deionized water, and dispersing in 20 mL of deionized water. After sonication for 1 minute, the suspension was delivered drop-wise to the previously background and corrected measuring cell filled with dispersant (deionized water) until the obscuration reached the desired level. Volume distributions were obtained for three times. After completing the measurements, the sample cell was emptied and cleaned, refilled with suspending medium, and the sampling procedure repeated again. For characterization, the values of D10, D50 and D90 (by volume), D[4,3] (mean diameter by volume) and D[3,2] (mean diameter by surface area to volume, or Sauter diameter) were specifically listed, each one being the mean of the six values available for each characterization parameter.
The notation Dx means that X % of the particles have a diameter less than a specified diameter D. Thus a D90 [or D(v, 0.9)] of 100 μm means that 90% of the particles have a diameter less than 100 μm.

Data set [2] can be described thus: Chargeability observed when handling crystals with a metallic material. From the text: Drug substances in solid form can suffer electrostatic charging by contact or friction electrification (tribocharging) caused by interactions among particles or between particles and the surfaces that contain them. These interactions can affect formulation, manufacture, powder flow, and packing behaviour. In addition, it has been reported that electrostatic charges are also responsible for problems in blend uniformity. The net positive or negative tendency of dry powders to become charged electrostatically is called chargeability.
There is no standard instrument for the measurement of the chargeability of dry powders (see AAPS PharmSciTech 2006, 7, Article 103). Triboelectric charge is commonly reported on a charge-to-mass basis since net charge and mass can be easily measured. However, triboelectric and induction charging are more closely related to the surface area of a particle rather to volume or mass. Then, it is well known that the surface area of the particles plays a key role in dry powder chargeability, and that therefore the particles having a higher specific surface area can hold a greater charge.

Data set [3] can be described thus: Solubility of nepafenac at reflux temperature in crystallization solvent. The procedure: General procedure: Nepafenac was dissolved under magnetical stirring and at reflux in a solvent (See Table 1). The solution was cooled to room temperature under stirring. The solid was filtered and dried. The different conditions and the obtained results are described in Table 1 below.

Data set [4] is described as follows: Optical microscopy: crystal shape and aspect ratio. To be noted: for Crystal shape: optical microscopy, 40× magnification; for Aspect ratio: crystal length / width, average of at least 100 crystals. From the text: The “aspect ratio” of a crystal is defined as the ratio of its longest dimension to its shortest dimension. As used herein, “aspect ratio” is the quotient of the division of a crystal's length by its width. The aspect ratio of crystals can be obtained by taking micrographs of a batch of crystal (See General Experimental Conditions. Optical Microscopy).
The micrographs were taken at 40× magnification.
The aspect ratio of crystals was obtained from micrographs of a batch of crystal. Micrographs were processed with ImageJ 1.42q software. Length and width of at least 100 representative crystals (i.e., having an area greater than 500 μm^2 for a 40× magnification image) was measured, and the aspect ratio of each crystal was calculated by dividing the crystal length by the crystal width. The average aspect ratio for each batch was determined by dividing the sum of crystal aspect ratios by the number of crystals measured.

The nature of data set [5]: BET specific surface area. The settings on record: for Specific Surface Area (BET): N2 adsorption at 77 K; for Sw (m^2/g): Table 4, powder specific surface area. The procedure: The BET (Brunauer, Emmett and Teller) specific surface area for nepafenac was measured using a Micromeritics™ GEMINI V equipment (GEMINI CONFIRM V2.00 Software™). The sample for analysis was degassed at 30° C. for 10 minutes and at 140° C. for one hour. The determination of the adsorption of N2 at 77 K was measured for relative pressures in the range of 0.02 to 0.2 for a weighed amount of nepafenac (i.e., approximately 0.5 g).

Data set [6] can be described thus: Sphericity factor calculation. The settings on record: calculated from Sw, ρ and DMVS. From the text: One of the most common ways of expressing the degree of irregularity of the particles is by means of the sphericity factor (ψw), which is generally defined as the ratio between the surface area of a sphere having the same volume as the particle and the surface area of the particle:
Because sphericity factors are not calculated for each particle but for an assembly of particles, they have to be based on an average size. Thus, the sphericity factor will then be given by the following equation: […]
where Sw is the powder specific surface area, ρ is the particle density and DMVS is the surface area mean diameter, also referred to as the mean volume-surface, the Sauter diameter or D[3,2]. The Sauter diameter is defined as the diameter of a sphere that has the same volume/surface area ratio as the particle of interest.
A sphericity factor of 1.0 describes a perfect sphere with the greatest ease of flow (Encapsulated and powdered foods, CRC Press 2005).

Data set [7] in a line: Density by glass pycnometer in n-heptane. The settings on record: Table 4, particle density. The procedure: Density of nepafenac samples was determined at 25° C. using a 50 mL glass pycnometer. […] The density of the nepafenac sample (ρs) can be determined from the known density of n-heptane (ρH: 0.685 g/cm^3), the weight of the pycnometer filled only with n-heptane (WH^0, the weight of the filled pycnometer containing both nepafenac and n-heptane (WS+H), and the weight of nepafenac (WS):
Density of nepafenac samples was determined for three times, being the listed result the mean of the three values available for each sample.

Data set [8] can be described thus: Flowability by Hausner ratio (tapped / bulk density). To be noted: micronized crystals. The procedure: Flowability affects the ease with which the material is handled during processing into a pharmaceutical product. Namely, when flowability is very poor, problems occur with handling and processing during formulating. The flowability of nepafenac can be measured using the Hausner ratio, which is a value calculated by dividing the tapped bulk density of nepafenac by the freely settled bulk density of nepafenac. The freely settled bulk density is calculated by pouring a known weight of material into a measuring cylinder and recording the volume. The tapped density is calculated by tapping the cylinder against a surface for a specified number of times and recording again the new volume. See Henry H. Hausner, “Friction Conditions in a Mass of Metal Powders”, Int. J. Powder Metall. Vol. 3, 1967, pp 7-13.
A low Hausner ratio indicates a high flowability. […]
Measurement of Hausner ratio is well-known in the art and is described, for example, by Mersmann; Crystallization Technology Handbook (A. Mersmann, ed., 2nd Ed., Marcel Dekker). In the present invention, the bulk and tapped densities for each sample of nepafenac were determined using a TP-TD1 tapped densitometer from Pharma Test. The Hausner ratio of the nepafenac sample was calculated by dividing the tapped bulk density by the bulk density.

Where [9] appears, read: Table 3, micronized samples, unit inferred.

In data set [1] (setting [9]), `NC(=O)Cc1cccc(C(=O)c2ccccc2)c1N` [Batch 1, 2-amino-3-benzoylbenzeneacetamide] yielded a D10 of 6.1 µm, a D50 of 21.4 µm and a D90 of 64.3 µm.

In data set [1] (setting [9]), `NC(=O)Cc1cccc(C(=O)c2ccccc2)c1N` [Batch 2, 2-amino-3-benzoylbenzeneacetamide] had a D10 of 4.8 µm, a D50 of 19.8 µm and a D90 of 66.5 µm.

In data set [1] (setting [9]), `NC(=O)Cc1cccc(C(=O)c2ccccc2)c1N` [Batch 3, 2-amino-3-benzoylbenzeneacetamide] gave a D10 of 4.4 µm, a D50 of 14.9 µm and a D90 of 45.3 µm.

In general, solubility refers to the concentration that dissolves in the medium under given conditions. Consider `NC(=O)Cc1cccc(C(=O)c2ccccc2)c1N` [Comparative Example 1, 2-amino-3-benzoylbenzeneacetamide, reference compound], for which, in data set [2], the Chargeability result is given as “high chargeability”. Moreover, the “solubility” value in data set [3] (in 2-propanol at reflux temperature) stood at 21.2 mg/mL (≈ 83.4 mM). The Crystal shape result in data set [4] is reported as “needle-like shape”.

`NC(=O)Cc1cccc(C(=O)c2ccccc2)c1N` [Comparative Example 2, 2-amino-3-benzoylbenzeneacetamide, reference compound]: in data set [4], the Aspect ratio amounted to 5.67 and the Crystal shape result was “Needle-like crystals”.

For `NC(=O)Cc1cccc(C(=O)c2ccccc2)c1N` [Comparative Example 3, 2-amino-3-benzoylbenzeneacetamide, reference compound], in data set [5], the “Specific Surface Area (BET)” value is given as 0.8256±0.0270 m^2/g. For the same compound, the Crystal shape result in data set [4] was “Needle-like crystals”. In addition, in data set [1] (by volume), the D10 turned out to be 23.6 μm, the D50 came to 85.8 μm and the D90 stood at 491.1 μm. The “D[4,3]” value in data set [1] (unit not given, in µm (unit assumed)) came to 178.4.

Take `NC(=O)Cc1cccc(C(=O)c2ccccc2)c1N` [Example 1, 2-amino-3-benzoylbenzeneacetamide]: the solubility in data set [3] (2-propanol:water 90:10, organic solvent or mixture, thermodynamic from solid, in 2-propanol:water 90:10 at reflux, read-out: Solubility) was 55.2 mg/mL (≈ 217 mM). Besides, in data set [4], the Aspect ratio turned out to be 3.04 and the Crystal shape entry is on record as “Plate”.

As to `NC(=O)Cc1cccc(C(=O)c2ccccc2)c1N` [Example 2, 2-amino-3-benzoylbenzeneacetamide], the solubility in data set [3] (2-propanol:water 80:20, organic solvent or mixture, thermodynamic from solid, in 2-propanol:water 80:20 at reflux, read-out: Solubility) came to 78.6 mg/mL (≈ 309 mM). Moreover, in data set [4], the Crystal shape result is “Plate”.

Turning to `NC(=O)Cc1cccc(C(=O)c2ccccc2)c1N` [Example 3, 2-amino-3-benzoylbenzeneacetamide], the solubility in data set [3] (2-propanol:water 70:30, organic solvent or mixture, thermodynamic from solid, in 2-propanol:water 70:30 at reflux, read-out: Solubility) turned out to be 79.6 mg/mL (≈ 313 mM). In addition, in data set [4], the Crystal shape entry is reported as “Plate”.

`NC(=O)Cc1cccc(C(=O)c2ccccc2)c1N` [Example 4, 2-amino-3-benzoylbenzeneacetamide]: the solubility in data set [3] (2-propanol:water 60:40, organic solvent or mixture, thermodynamic from solid, in 2-propanol:water 60:40 at reflux, read-out: Solubility) was determined as 32.6 mg/mL (≈ 128 mM). Besides, in data set [4], the Crystal shape entry is reported as “Plate”.

On to `NC(=O)Cc1cccc(C(=O)c2ccccc2)c1N` [Example 5, 2-amino-3-benzoylbenzeneacetamide], for which, in data set [2], the Chargeability result was “Reduced chargeability”. In data set [4], the Crystal shape entry was “plate-like shape”.

Consider `NC(=O)Cc1cccc(C(=O)c2ccccc2)c1N` [Example 6, 2-amino-3-benzoylbenzeneacetamide], for which, in data set [5], the “Specific Surface Area (BET)” value turned out to be 0.7046±0.0272 m^2/g. Besides, the Crystal shape result in data set [4] is listed as “plate-like crystals”. Moreover, in data set [1] (by volume), the D10 is reported as 30.5 μm, the D50 is listed as 144.9 μm and the D90 stood at 401.8 μm. For the same compound, in data set [1], the “D[4,3]” value is 185.0 μm.

For the compound `NC(=O)Cc1cccc(C(=O)c2ccccc2)c1N` [Example 7, 2-amino-3-benzoylbenzeneacetamide, reference compound], in data set [1] (by volume), the D10 came out at 1.3 μm, the D50 amounted to 6.1 μm and the D90 stood at 17.1 μm.

For `NC(=O)Cc1cccc(C(=O)c2ccccc2)c1N` [Example 8, 2-amino-3-benzoylbenzeneacetamide], the “Sw (m^2/g)” value in data set [5] stood at 1.7686 ± 0.0242 m^2/g. Further, the “Ψw (sphericity factor)” value in data set [6] is reported as 1.0. Further, the “ρ” value in data set [7] came to 1.33 g/mL. For the same compound, the Hausner ratio in data set [8] is reported as 1.43. The “DMVS (μm)” value in data set [1] turned out to be 2.5 μm. In data set [1] (by volume), the D10 stood at 1.2 μm, the D50 amounted to 5.8 μm and the D90 amounted to 18.9 μm.

With `NC(=O)Cc1cccc(C(=O)c2ccccc2)c1N` [Example 10, 2-amino-3-benzoylbenzeneacetamide], the “Sw (m^2/g)” value in data set [5] was 2.0341 ± 0.0074 m^2/g. Further, the “Ψw (sphericity factor)” value in data set [6] is recorded as 0.82. Moreover, in data set [7], the “ρ” value worked out at 1.33 g/mL. For the same compound, the “DMVS (μm)” value in data set [1] was found to be 2.7 μm. In addition, in data set [1] (by volume), the D10 worked out at 2.2 μm, the D50 was 12.1 μm and the D90 came to 27.5 μm. In addition, the “D[3,2]” value in data set [1] (mean diameter by surface area to volume (Sauter diameter)) came to 2.7 μm.
